# Test results reported in patent publication US10285994B2, “Method of preventing or treating osteoporosis by neddylation inhibitor” (Chang Gung University, priority 2017, dated 2019).
# What was measured:
# [1] = test system: primary mouse bone marrow-derived macrophages (BMMs); experiment: Osteoclast formation from BMMs, TRAP staining; assay type: cell-based; details: sRANKL 50 ng/ml, M-CSF 40 ng/ml, 7 days, FIG. 1A
# Method: FIGS. 1A-1D are data collected from primary mouse bone marrow-derived macrophages (BMMs) respectively incubated in the medium containing the soluble recombinant RANKL (sRANKL, 50 ng/ml), macrophage colony-stimulating factor (M-CSF, 40 ng/ml) and specified concentrations of MLN4924 for 7 days according to example 1.1 of the present disclosure. FIG. 1A: the photographs of TRAP staining depicting the differentiation of osteoclasts from BMMs. FIG. 1B: after the differentiation of osteoclasts in Corning Osteo Surface (a synthetic 3-dimensional structure that mimics in vivo bone for in vitro bone cell assays), the cells were removed, and the resorbed areas for confirming osteoclast activity were analyzed by 1% toluidine blue staining. FIG. 1C: the culture medium is subject to Biovision Cathepsin K Activity Fluorometric Assay Kit for the analysis of cathepsin K activity. FIG. 1D: the effect of effective doses of MLN4924 on the viability of BMMs is evaluated by MTT assay. Scale bar represents 100 μm. Data are expressed as mean±SD where *p<0.05; **p<0.01.
# The pre-osteoclast cells were prepared by mouse bone marrow-derived macrophage (BMM). In brief, the femurs and tibias were obtained from 6-12 week old C57BL/6J female mice. […]
# RAW264.7 cells = experiment: Osteoclast formation from RAW264.7 cells, TRAP staining; assay type: cell-based, mouse; details: sRANKL-activated RAW264.7 cells, 7 days, FIG. 2A
# Method: FIGS. 2A-2D are data collected from RAW264.7 cells respectively incubated in the medium containing sRANKL (50 ng/ml) and specified concentrations of MLN4924 for 7 days according to example 1.2 of the present disclosure. FIG. 2A: the photographs of TRAP staining depicting the differentiation of osteoclasts from RAW264.7 cells. FIG. 2B: after the differentiation of osteoclasts in Corning Osteo Surface, the cells were removed, and the resorbed areas for confirming osteoclast activity were analyzed by 1% toluidine blue staining. FIG. 2C: the culture medium is subject to Biovision Cathepsin K Activity Fluorometric Assay Kit for the analysis of cathepsin K activity. FIG. 2D: the effect of effective doses of MLN4924 on the viability of RAW264.7 cells is evaluated by MTT assay. Scale bar represents 100 μm. Data are expressed as mean±SD where *p<0.05.
# RAW264.7 cells (murine monocytic/macrophage cell line) were cultured in Dulbecco's modified Eagle's medium high glucose (DMEM)(Gibco BRL, Gaithersburg, Md.) containing 10% fetal bovine serum (Gibco) and 1× GlutaMax (Gibco).
# For in vitro osteoclast formation, the pre-osteoclasts and RAW264.7 cells were cultured in the medium containing 50 ng/ml sRANKL […] specified concentrations of MLN4924 for seven days. […]
# ERK (pERK) = experiment: Western blot, sRANKL-induced ERK phosphorylation in RAW264.7 cells; assay type: cell-based, mouse; details: RAW264.7, 30 min pre-treatment, sRANKL 50 ng/ml, FIG. 3A-3B
# Method: (§1) FIGS. 3A-3D are data collected from Western blot analysis that respectively depict the expression of specified protein extracted from the RAW264.7 cells, which are pre-treated with specified concentrations of MLN4924 for 30 minutes followed by the stimulation of sRANKL (50 ng/ml) according to example 2 of the present disclosure. FIG. 3A: the time course effect of MLN4924 on the phosphorylations of ERK (pERK), P38 (pP38) and JNK (pJNK). FIG. 3B: the dose effect of MLN4924 on the phosphorylations of ERK (pERK), P38 (pP38) and JNK (pJNK). FIG. 3C: the time course effect of MLN4924 on the expression of NFATc-1. FIG. 3D: the dose effect of MLN4924 on the expression of NFATc-1. Mock: untreated control; R: sRANKL; M: MLN4924.
# (§2) The RAW264.7 cells were starved with serum-free medium for six hours and then treated with the specified treatments. At indicated time points, the cells were washed with cold phosphate-buffered saline (PBS) and lysed in RIPA buffer containing complete protease inhibitor cocktail (Roche). The cell lysates were separated by SDS-PAGE followed by Western blotting with the indicated antibodies, including NEDD8, APPBP1, UBA3.
# (§3) Specifically, the inhibitory effect increased with an increase in the MLN4924 concentration (FIG. 3B).
# P38 (pP38) = experiment: Western blot, sRANKL-induced P38 phosphorylation in RAW264.7 cells; assay type: cell-based, mouse; details: RAW264.7, 30 min pre-treatment, sRANKL 50 ng/ml, FIG. 3A-3B
# Method: as §1, §2, §3
# MC3T3-E1 cells = experiment: Osteogenesis, Alizarin Red S stain of MC3T3-E1 cells; assay type: cell-based, mouse; details: MC3T3-E1, osteoblast differentiation medium, 21 days, FIG. 4B
# Method: FIGS. 4A-4B respectively depict the osteogenesis of mouse pre-osteoblast cell line MC3T3-E1 cells incubated in the differentiation medium containing specified concentrations of MLN4924 for 21 days according to example 3 of the present disclosure. FIG. 4A: the growth of MC3T3-E1 cells during osteogenesis is analyzed by crystal violet staining. FIG. 4B: the osteogenesis of MC3T3-E1 cells on day 21 is analyzed by measuring Alizarin Red S stain. Diff: osteoblast differentiation medium. MLN: MLN4924.
# The mouse pre-osteoblast cell line MC3T3-E1 cells were cultured in osteoblast differentiation medium with or without MLN4924 for 21 days.
smiles,measurement,setting,value
"NS(=O)(=O)OC[C@@H]1C[C@@H](n2ccc3c(N[C@H]4CCc5ccccc54)ncnc32)C[C@@H]1O [MLN4924, (1S,2S,4R)-4-(4-((1S)-2,3-Dihydro-1H-inden-1-ylamino)-7H-pyrrolo(2,3-d)pyrimidin-7-yl)-2-hydroxycyclopentyl) methyl sulphamate]",sRANKL-mediated osteoclast formation (TRAP staining),[1],obviously suppressed the sRANKL-mediated osteoclast formation in a dose-dependent manner
same,differentiation of osteoclasts (TRAP staining),RAW264.7 cells,significantly inhibited
same,sRANKL-upregulated phosphorylation of ERK (pERK),ERK (pERK),inhibited
same,sRANKL-upregulated phosphorylation of P38 (pP38),P38 (pP38),inhibited
same,differentiation of osteoblasts (Alizarin Red S),MC3T3-E1 cells,"neither the survival of osteoblasts (FIG. 4A), nor the differentiation of osteoblasts (FIG. 4B) was affected"
